Data set [1] is described as follows: Cell death (LDH assay). The data set is classed as cell-based. As to the method:
Presence of LDH in cell-free supernatants was measured using the Cytotoxicity Detection kit (Roche) following the manufacturer's instructions.

In data set [2] the test system is HIF-1α. The data set is described as follows: HIF-1α staining in human monocytes by flow cytometry. In kind it is cell-based. The conditions noted are these: ATP 1 mM 30 min, washed, cultured 2 h (FIG. 7e). For orientation: Flow cytometry measures light scatter and fluorescence of single cells or particles in a stream.
Experimental: (e) Representative histogram plot of HIF-1α staining (left) or quantification of HIF-1α mean intensity fluorescence increase (ΔMFI, right) in monocytes isolated from healthy donor blood samples and treated or not with ATP (1 mM, 30 min) in the presence or absence of AZ11645373 (10 μM) or PDTC (10 μM), and then washed and cultured for 2 h; non-stained monocytes (light grey, left).
Human peripheral blood mononuclear cells (PBMCs) were isolated from blood within one hour after extraction using Ficoll histopaque 1077 (Sigma-Aldrich). […] Cells were treated with ATP (Sigma-Aldrich), antimycin A (Sigma-Aldrich) or FCCP (Sigma-Aldrich) in the presence or absence of PDTC (Sigma-Aldrich) or echinomycin (Sigma-Aldrich) in E-total buffer (147 mM NaCl, 10 mM HEPES, 13 mM glucose, 2 mM CaCl2), 1 mM MgCl2, and 2 mM KCl) and then washed and stimulated with E. coli LPS O55:B5 in their respective complete media. […] After LPS treatment, cells were incubated with P2X7 modulating nanobodies, the specific P2X7 receptor antagonist A438079 or AZ11645373 (Tocris), and then subsequently stimulated with ATP or nigericin (Sigma-Aldrich) in E-total buffer. Times and concentrations for the reagents used are specified in the figure legends.
HIF-1α expression was detected in CD14^+ monocytes using Alexa Fluor-647 mouse anti-human HIF-1α (BD Biosciences, Clone 54) at 1:1000 dilution.
For data set [3], the system named is P2X7 receptor. The data set is described as follows: Cecal ligation and puncture (CLP) sepsis model with i.p. ATP before operation. The conditions noted are these: wild type mice, ATP pre-treatment (FIG. 6g). The data set is classed as in vivo, mouse. The procedure:
FIG. 6. P2X7 receptor stimulation induces an impairment of the NLRP3 inflammasome in monocytes. (a-b) Percentage of monocytes with ASC-specks (a) and release of […] from PBMCs (b) isolated from healthy donor blood samples treated with ATP (3 mM, 30 min; ATP-pre), then washed and primed with or without LPS (1 μg/ml, 2 h) and then treated for 20 min with ATP (3 mM; ATP-post) or nigericin (10 μM) as indicated. (c) IL-1β release from wild type or P2rx7^−/− BMDMs treated as in a, but with 4 h LPS priming and 30 min of ATP or nigericin. […] (e) Expression of Nrlp3 and Illb genes analyzed by quantitative PCR from wild type or P2rx7^−/− BMDMs treated with ATP (3 mM, 30 min; ATP-pre), then washed and primed with or without LPS (100 ng/ml, 4 h). […]
The University of Murcia Animal Research Ethical Committee approved animal procedures (ref 5/2014) and then the Animal Health Service of the General Directorate of Fishing and Farming of the Council of Murcia (Servicio de Sanidad Animal, Dirección General de Ganaderia y Pesca, Consejeria de Agricultura y Agua Región de Murcia) approved animal procedures with ref A1320140201. […] Buprenorphine (0.3 mg/kg) was administered intraperitoneally at the time of surgery and mice were monitored continuously until recovery from anesthesia. […] Then the number of bacterial colonies was counted and expressed as CFU/ml of serum.

Data set [4] relates to P2X7 receptor. Description: Electron microscopy of mitochondria after ATP. In kind it is cell-based.

We go through one compound from patent US20220334127A1, “IN VITRO METHOD FOR OBTAINING CLINICAL DATA IN PATIENTS SUFFERING FROM AN INFLAMMATORY DISEASE” (FUNDACIÓN PARA LA FORMACIÓN E INVESTIGACIÓN SANITARIAS DE …, priority 2019, published 2022).

For `Nc1ncnc2c1ncn2[C@@H]1O[C@H](COP(=O)(O)OP(=O)(O)OP(=O)(O)O)[C@@H](O)[C@H]1O` [ATP, adenosine triphosphate], the cell death entry in data set [1] was “did not induce cell death”. For the same compound, in data set [2], the “HIF-1α expression by the agent itself” value is listed as “increased”. Moreover, the “bacterial load in the blood” value in data set [3] (24 h after CLP) was “increased”. Moreover, the “release of IL-1β into the mouse peritoneum” value in data set [3] (peritoneal lavage 24 h after CLP) was “decreased”. Further, in data set [4], the “damage to the mitochondria (electron microscopy)” value is “no damage to the mitochondria” and the “mitochondrial swelling (electron microscopy)” value is on record as “a swelling of the mitochondria”.
